Results: patent publication US6548536B2, “Agent for inducing apoptosis” (Kyowa Hakko Kogyo Co., Ltd., priority 1998, dated 2003)
In brackets after ≈: the same amount, converted by molar mass.

Key:
Assay type in all cases: cell-based
[1] = test system: Staphylococcus aureus ATCC6538P; assay: Antibacterial activity, agar dilution method; set-up: key: —: Inactive; details: pH 7
Description: (§1) Antibacterial activity was determined by the agar dilution method using a medium prepared by dissolving 3 g of Bacto trypton (Difco), 3 g of meat extract, 1 g of yeast extract, 1 g of glucose, and 16 g of agar in 1 L of water (pH 7). The antibacterial activities of typical compounds are shown in Table 6 as minimum growth inhibitory concentrations (MIC)

[2] = test system: Enterococcus hirae ATCC10541; assay: Antibacterial activity, agar dilution method; set-up: key: —: Inactive; details: pH 7
Description: as §1

[3] = test system: Bacillus Subtilis ATCC107O7; assay: Antibacterial activity, agar dilution method; set-up: key: —: Inactive; details: pH 7
Description: as §1

MCF-7 cell = assay: Growth inhibition test for hormone-dependent human breast cancer MCF-7 cell strain (MTT); details: 72 hours
Description: Cells were placed in each well of a 96-well microplate (Nunc, #167008) in an amount of 4000 cells per well, and the cells were pre-cultured in RPMI 1640 medium containing 5% fetal calf serum (FCS) for 24 hours in a 5% carbon dioxide gas incubator at 37° C. Then, a solution of each test compound in dimethyl sulfoxide (DMSO) prepared at a concentration of 10 mmol/L was serially diluted with the culture medium and added to each well (final volume: 100 μL/well). The cells were then further cultured for 72 hours in a 5% carbon dioxide gas incubator at 37° C. Five hours before completion of the culture, 4,5-dimethylthiazol-2-yl)-2,5-diphenyltetrazolium bromide (Sigma, abbreviated as “MTT” hereinafter) prepared at a concentration of 6 mg/mL with the culture medium was added in an amount of 10 μL per well. After the completion of culture, the medium was sucked, DMSO was added to each well in an amount of 150 μL per well and the mixture was vigorously stirred by using a plate mixer to completely dissolve the crystals of MTT-formazan. Then, difference of absorbance at 550 nm and 630 nm was determined by using a microplate reader (M-Spmax250, Wako Pure Chemicals). Inhibitory activity on the cell growth was calculated as 50% growth inhibitory concentration (IC50) based on a 4-parameter logistic calibration curve by using the formula of the analysis software (SOFTmax-J Ver.2.1) equipped with microplate reader.

HeLa/bcl-2 cells [4] = assay: Anti-Fas antibody-dependent apoptosis inducing activity for HeLa/bcl-2 cells; details: Drug concentration: 5 μM, added simultaneously with anti-Fas monoclonal antibody (CH11, 10 ng); 6 hours; Anti-Fas antibody = 100
From the text: In HeLa/bcl-2 cells into which the bcl-2 gene is introduced, apoptosis is suppressed by the bcl-2 gene. For this reason, they acquire resistance to apoptosis induced by various anticancer agents or anti-Fas antibodies. Test compounds were examined in their eliminating effect on the apoptosis resistance of HeLa/bcl-2 by simultaneously adding an anti-Fas antibody and each test compound to HeLa/bcl-2 cells and detecting enzymatic activity of caspase that was activated in the process of apoptosis induction as described below. HeLa/bcl-2 cells in Medium A were placed in each well of a 96-well microtiter plate in an amount of 3×10^4 cells. The plate was incubated in a carbon dioxide gas incubator at 37° C. for 12 hours, then each test compound appropriately diluted with Medium A (10 μl) and an anti-Fas monoclonal antibody (CH11, 10 ng) were simultaneously added to each well, and the plate was further incubated in a carbon dioxide gas incubator at 37° C. for 6 hours. After the culture supernatant was removed, the cells were lysed, and caspase activity was measured in the same manner as in Test Example 1. The enzymatic activity of caspase, which was not increased by an anti-Fas antibody alone, was increased by the treatment with the anti-Fas antibody together with the test compound.

HeLa/bcl-2 cells [5] = assay: Apoptosis inducing activity (caspase activation, Ac-DEVD-AMC) for HeLa/bcl-2 cells; details: Drug concentration: 5 μM; 6 hours; No drug = 100
Description: (§2) Apoptosis inducing activity of the medicaments of the present invention was determined by measuring enzymatic activity of caspase activated in the process of apoptosis induction as described below,. HeLa cells or HeLa cells into which the bcl-2 gene was introduced (HeLa/bcl-2 cells) contained in DME medium containing 10% fetal calf serum (NISSUI PHARMACEUTICAL CO., LTD., referred to as “Medium A” hereinafter in the example) were placed in each well of 96-well microtiter plates in an amount of 3×10^4 cell. The cells on the plates were cultured in a carbon dioxide gas incubator at 37° C. for 12 hours, then a test compound appropriately diluted with Medium A was added to each well in an amount of 10 μl, and the cells were further cultured in a carbon dioxide gas incubator at 37° C. for 6 hours. After the culture supernatant was removed, the cells were lysed, and to the cell lysate was added a fluorescent substrate of caspase, Ac-DEVD-AMC (Peptide Laboratory). Then, the caspase activity was determined by measuring AMC (7-amino-4-methylcoumarin) released as a result of degradation of Ac-DEVD-AMC by caspase remained in the cell lysate through measurement of fluorescence intensity at 460 nm.

HeLa cells = assay: Apoptosis inducing activity (caspase activation, Ac-DEVD-AMC) for HeLa cells; details: Drug concentration: 5 μM; 6 hours; No drug = 100
Description: as §2

HeLa/bcl-2 cells [6] = assay: Cytotoxic activity for HeLa/bcl-2 cells (XTT staining); details: 24 hours, read-out: Growth Inhibition (IC50), HeLa/bcl-2 cell
Description: HeLa/bcl-2 cells in Medium A were placed in each well of a 96-well microtiter plate in an amount of 3×10^4 cells. The plate was incubated in a carbon dioxide gas incubator at 37° C. for 12 hours, then 10 μl of each test compound appropriately diluted with Medium A was added to each well, and the incubation was further continued in a carbon dioxide gas incubator at 37° C.

Row | SMILES | MIC, SA [1] | MIC, EH [2] | MIC, BS [3] | IC50 (MCF-7 cell) [nM] | Rate of Caspase Activation, HeLa/bcl-2 cell (HeLa/bcl-2 cells [4]) [%] | Rate of Caspase Activation, HeLa/bcl-2 cell (HeLa/bcl-2 cells [5]) [%] | Rate of Caspase Activation, HeLa cell (HeLa cells) [%] | IC50 (HeLa/bcl-2 cells [6]) [nM]
1 | COC(=O)NC1C(C)OC(OC2C/C=C(\C)C3C=CC4C(OC5CC(OC6CCC(O)C(C)O6)C(OC(C)=O)C(C)O5)C(C)CC(C)C4C3(C)C(=O)C3=C(O)C4(CC(C=NO)=CC(O)C4/C=C/2C)OC3=O)CC1(C)[N+](=O)[O-] (stereo not shown) [Compound 25] | — | — | >83 µg/mL |  |  |  |  | 
2 | COC(=O)NC1C(C)OC(OC2CC=C(C)C3C=CC4C(OC5C=CC(OC(C)=O)C(C)O5)C(C)CC(C)C4C3(C)C(=O)C3=C(O)C4(CC(C=O)=CC(OC(C)=O)C4C=C2C)OC3=O)CC1(C)[N+](=O)[O-] (stereo not shown) [Compound 61] | — | — | 10.4 µg/mL (≈ 10.6 µM) | 1450 | 452 | 370 | 213 | 
3 | COC(=O)NC1C(C)OC(OC2CC=C(C)C3C=CC4C(OC5CC(OCc6ccccc6)C(OCc6ccccc6)C(COCc6ccccc6)O5)C(C)CC(C)C4C3(C)C(=O)C3=C(O)C4(CC(C=O)=CC(OC(C)=O)C4C=C2C)OC3=O)CC1(C)[N+](=O)[O-] (stereo not shown) [Compound 56] |  |  |  | 630 |  |  |  | 
4 | COC(=O)NC1C(C)OC(OC2CC=C(C)C3C=CC4C(OC5(C)OC6OC(COC(C)=O)C(OC(C)=O)C(OC(C)=O)C6O5)C(C)CC(C)C4C3(C)C(=O)C3=C(O)C4(CC(C=O)=CC(OC(C)=O)C4C=C2C)OC3=O)CC1(C)[N+](=O)[O-] (stereo not shown) [Compound 66] | 60.0 µg/mL (≈ 51.9 µM) | 60.0 µg/mL (≈ 51.9 µM) | >60.0 µg/mL | 1400 |  |  |  | 
5 | COC(=O)NC1C(C)OC(OC2CC=C(C)C3C=CC4C(OC5C=CC(O)C(C)O5)C(C)CC(C)C4C3(C)C(=O)C3=C(O)C4(CC(C=O)=CC(OC(C)=O)C4C=C2C)OC3=O)CC1(C)[N+](=O)[O-] (stereo not shown) [Compound 60] | — | — | >83.3 µg/mL |  | 526 |  |  | 
6 | COC(=O)NC1C(C)OC(OC2C/C=C(\C)C3C=CC4C(OC5CC(OC6CCC(OC7CC(O)C(OC8CCC(O)C(C)O8)C(C)O7)C(C)O6)C(OC(C)=O)C(C)O5)C(C)CC(C)C4C3(C)C(=O)C3=C(O)C4(CC(C=O)=CC(O)C4/C=C/2C)OC3=O)CC1(C)[N+](=O)[O-] (stereo not shown) [Compound 1] |  |  |  |  | 964 |  |  | 
7 | COC(=O)NC1C(C)OC(OC2CC=C(C)C3C=CC4C(OC5CC(OCc6ccccc6)C(OCc6ccccc6)C(COCc6ccccc6)O5)C(C)CC(C)C4C3(C)C(=O)C3=C(O)C4(CC(C=O)=CC(O)C4C=C2C)OC3=O)CC1(C)[N+](=O)[O-] (stereo not shown) [Compound 55] |  |  |  |  |  | 448 | 106 | 
8 | CC[Si](CC)(CC)OC1C=CC(OC2C(C)CC(C)C3C2C=CC2C(C)=CCC(OC4CC(C)([N+](=O)[O-])C(NC(=O)OC)C(C)O4)C(C)=CC4C(OC(C)=O)C=C(C=O)CC45OC(=O)C(=C5O)C(=O)C23C)OC1C (stereo not shown) [Compound 63] | — | — | >91.7 µg/mL | 720 |  |  |  | 
9 | CCOC(OCC)C1=CC(O)C2/C=C(\C)C(OC3CC(C)([N+](=O)[O-])C(NC(=O)OC)C(C)O3)C/C=C(\C)C3C=CC4C(OC5CC(OC6CCC(OC7CC(O)C(OC8CCC(O)C(C)O8)C(C)O7)C(C)O6)C(OC(C)=O)C(C)O5)C(C)CC(C)C4C3(C)C(=O)C3=C(OC)C2(C1)OC3=O (stereo not shown) [Compound 38] | — | — | 12.5 µg/mL (≈ 8.92 µM) | 1220 |  |  |  | 
10 | COC(=O)NC1C(C)OC(OC2C/C=C(\C)C3C=CC4C(O[Si](C)(C)C(C)(C)C)C(C)CC(C)C4C3(C)C(=O)C3=C(O)C4(CC(C=O)=CC(O)C4/C=C/2C)OC3=O)CC1(C)[N+](=O)[O-] (stereo not shown) [Compound 22] | 42 µg/mL (≈ 46.8 µM) | 21 µg/mL (≈ 23.4 µM) | — |  | 444 | 1078 | 243 | 1800
11 | COC(=O)NC1C(C)OC(OC2CC=C(C)C3C=CC4C(OC5CC(OC(C)=O)C(OC(C)=O)C(C)O5)C(C)CC(C)C4C3(C)C(=O)C3=C(O)C4(CC(C=O)=CC(OC(C)=O)C4C=C2C)OC3=O)CC1(C)[N+](=O)[O-] (stereo not shown) [Compound 59] | >66.7 µg/mL | >66.7 µg/mL | 16.7 µg/mL (≈ 16.1 µM) | 980 |  |  |  | 
12 | COC(=O)NC1C(C)OC(OC2C/C=C(\C)C3C=CC4C(OC5CC(OC6CCC(OC7CC(O)C(O)C(C)O7)C(C)O6)C(OC(C)=O)C(C)O5)C(C)CC(C)C4C3(C)C(=O)C3=C(O)C4(CC(C=NO)=CC(O)C4/C=C/2C)OC3=O)CC1(C)[N+](=O)[O-] (stereo not shown) [Compound 24] | >92 µg/mL | >92 µg/mL | 2.9 µg/mL (≈ 2.39 µM) |  |  |  |  | 
13 | COC(=O)NC1C(C)OC(OC2C/C=C(\C)C3C=CC4C(OC5CCCCO5)C(C)CC(C)C4C3(C)C(=O)C3=C(O)C4(CC(C=O)=CC(OC(C)=O)C4/C=C/2C)OC3=O)CC1(C)[N+](=O)[O-] (stereo not shown) [Compound 51] | 1.56 µg/mL (≈ 1.72 µM) | 1.56 µg/mL (≈ 1.72 µM) | 6.25 µg/mL (≈ 6.88 µM) | 1360 | 460 |  |  | 
14 | COC(=O)C=CC1=CC(O)C2/C=C(\C)C(OC3CC(C)([N+](=O)[O-])C(NC(=O)OC)C(C)O3)C/C=C(\C)C3C=CC4C(OC5CC(OC6CCC(OC7CC(O)C(OC8CCC(O)C(C)O8)C(C)O7)C(C)O6)C(OC(C)=O)C(C)O5)C(C)CC(C)C4C3(C)C(=O)C3=C(O)C2(C1)OC3=O (stereo not shown) [Compound 37] | — | — | 0.42 µg/mL (≈ 0.307 µM) | 5110 |  |  |  | 
15 | COC(=O)NC1C(C)OC(OC2C/C=C(\C)C3C=CC4C(OC5CC(OC6CCC(OC7CC(OC(C)=O)C(O)C(C)O7)C(C)O6)C(OC(C)=O)C(C)O5)C(C)CC(C)C4C3(C)C(=O)C3=C(O)C4(CC(C=O)=CC(OC(C)=O)C4/C=C/2C)OC3=O)CC1(C)[N+](=O)[O-] (stereo not shown) [Compound 65] | — | — | 2.34 µg/mL (≈ 1.82 µM) | 520 | 659 |  |  | 
